# According to patent publication US20220281848A1, “PYRAZOLE-SUBSTITUTED PYRROLIDINONES AS HERBICIDES” (FMC Corporation, priority 2019, published 2022):
# What was measured:
# Format in all cases: in vivo
# [1] = system: giant foxtail (Setaria faberi, SETFA); experiment: Test A pre-emergence, giant foxtail; conditions: after 13 d
# In short: (§1)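 Pots of soil sown, sprayed at day 1 post-sowing: test compound at 15.625/62.5/250 g/ha in acetone:water 1:1 + 0.5% Tween 20. Glasshouse 24/16° C., 14 h light, 65% RH, watering twice daily. Readout: % damage after 13 d.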
# [2] = system: giant foxtail (Setaria faberi, SETFA); experiment: Test A post-emergence, giant foxtail; conditions: after 13 d
# In short: (§2)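 Visual damage at 13 d after treatment, rated from 0 (no damage) to 100 (total damage). Eight-day-old pot-grown plants had been sprayed with 15.625, 62.5 or 250 g/ha of compound in aqueous acetone (50:50) containing 0.5% Tween 20.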
# wheat = experiment: Test D pre-emergence, wheat seed treated with a herbicide safener; conditions: 100=total damage, 0=no damage
# Method: (§3) A formulation containing 50 g/L of the test chemical was prepared by dissolving the active ingredient in a mixture of organic solvents and emulsifier, details of which are provided in the table. This formulation was then mixed with a small, variable amount of acetone to aid dissolution, before addition of a 0.2% v/v aqueous solution of an adjuvant, as the aqueous diluent, to form an aqueous spray solution which contains a predetermined concentration of the active ingredient.
# (§4) This aqueous spray solution was then sprayed onto plants including maize and wheat that had been seed treated with a herbicide safener, after one day's cultivation (for pre-emergence) or after about 12 days' cultivation (for post-emergence). The plants were grown from seeds sown in standard soil, placed in a glasshouse under controlled conditions (at 24/18° C. or 20/16° C., day/night; 16 h light; 65% humidity). After spray application the plants were then grown in a glasshouse under the same conditions and watered twice daily. After 15 d for post-emergence and 20 DAA for pre-emergence the test was evaluated (100=total damage to plant; 0=no damage to plant).
# [3] = system: velvetleaf (Abutilon theophrasti, ABUTH); experiment: Test A post-emergence, velvetleaf; conditions: after 13 d
# In short: as §2
# corn (Zea mays, ZEAMX) = experiment: Test A pre-emergence, corn; conditions: after 13 d
# In short: as §1
# [4] = system: barnyardgrass (Echinochloa crus-galli, ECHCG); experiment: Test A post-emergence, barnyardgrass; conditions: after 13 d
# In short: as §2
# maize = experiment: Test D pre-emergence, maize seed treated with a herbicide safener; conditions: ZEAMX, preemergent, 20 DAA
# Method: as §3, §4
# [5] = system: ivy-leaved morning glory (Ipomoea hederacea, IPOHE); experiment: Test A post-emergence, ivy-leaved morning glory; conditions: after 13 d
# In short: as §2
# [6] = system: redroot pigweed (Amaranthus retroflexus, AMARE); experiment: Test A post-emergence, redroot pigweed; conditions: after 13 d
# In short: as §2
# [7] = system: redroot pigweed (Amaranthus retroflexus, AMARE); experiment: Test A pre-emergence, redroot pigweed; conditions: after 13 d
# In short: as §1
smiles,measurement,setting,value
CN1CC(c2cc(C(F)(F)F)n(C)n2)C(C(=O)Nc2ccccc2F)C1=O (racemic) [Compound 9],damage to plant (100=total damage; 0=no damage) SETFA,[1]; Pre-Emergence at 15.625 g/ha,70
same,damage to plant (100=total damage; 0=no damage) SETFA,[1]; Pre-Emergence at 62.5 g/ha,90
same,damage to plant (100=total damage; 0=no damage) SETFA,[1]; Pre-Emergence at 250 g/ha,90
same,damage to plant (100=total damage; 0=no damage) SETFA,[2]; Post-Emergence at 15.625 g/ha,40
same,damage to plant (100=total damage; 0=no damage) SETFA,[2]; Post-Emergence at 62.5 g/ha,90
same,damage to plant (100=total damage; 0=no damage) SETFA,[2]; Post-Emergence at 250 g/ha,90
same,"damage to plant, TRZAW","wheat; rate 15, 20 DAA",0
same,"damage to plant, TRZAW","wheat; rate 30, 20 DAA",0
same,"damage to plant, TRZAW","wheat; rate 60, 20 DAA",0
same,"damage to plant, TRZAW","wheat; rate 130, 20 DAA",0
same,"damage to plant, TRZAW","wheat; rate 250, 20 DAA",0
same,"damage to plant, TRZAW","wheat; rate 500, 20 DAA",0
same,damage to plant (100=total damage; 0=no damage) ABUTH,[3]; Post-Emergence at 15.625 g/ha,0
same,damage to plant (100=total damage; 0=no damage) ABUTH,[3]; Post-Emergence at 62.5 g/ha,0
same,damage to plant (100=total damage; 0=no damage) ABUTH,[3]; Post-Emergence at 250 g/ha,0
same,damage to plant (100=total damage; 0=no damage) ZEAMX,"corn (Zea mays, ZEAMX); Pre-Emergence at 15.625 g/ha",50
same,damage to plant (100=total damage; 0=no damage) ZEAMX,"corn (Zea mays, ZEAMX); Pre-Emergence at 62.5 g/ha",0
same,damage to plant (100=total damage; 0=no damage) ZEAMX,"corn (Zea mays, ZEAMX); Pre-Emergence at 250 g/ha",20
same,damage to plant (100=total damage; 0=no damage) ECHCG,[4]; Post-Emergence at 15.625 g/ha,60
same,damage to plant (100=total damage; 0=no damage) ECHCG,[4]; Post-Emergence at 62.5 g/ha,90
same,damage to plant (100=total damage; 0=no damage) ECHCG,[4]; Post-Emergence at 250 g/ha,90
same,"damage to plant (100=total damage to plant; 0=no damage to plant), ZEAMX",maize; rate 15,0
same,"damage to plant (100=total damage to plant; 0=no damage to plant), ZEAMX",maize; rate 30,0
same,"damage to plant (100=total damage to plant; 0=no damage to plant), ZEAMX",maize; rate 60,0
same,"damage to plant (100=total damage to plant; 0=no damage to plant), ZEAMX",maize; rate 130,0
same,"damage to plant (100=total damage to plant; 0=no damage to plant), ZEAMX",maize; rate 250,0
same,"damage to plant (100=total damage to plant; 0=no damage to plant), ZEAMX",maize; rate 500,0
same,damage to plant (100=total damage; 0=no damage) IPOHE,[5]; Post-Emergence at 15.625 g/ha,10
same,damage to plant (100=total damage; 0=no damage) IPOHE,[5]; Post-Emergence at 62.5 g/ha,0
same,damage to plant (100=total damage; 0=no damage) IPOHE,[5]; Post-Emergence at 250 g/ha,0
same,damage to plant (100=total damage; 0=no damage) AMARE,[6]; Post-Emergence at 15.625 g/ha,0
same,damage to plant (100=total damage; 0=no damage) AMARE,[6]; Post-Emergence at 62.5 g/ha,0
same,damage to plant (100=total damage; 0=no damage) AMARE,[6]; Post-Emergence at 250 g/ha,0
same,damage to plant (100=total damage; 0=no damage) AMARE,[7]; Pre-Emergence at 15.625 g/ha,0
same,damage to plant (100=total damage; 0=no damage) AMARE,[7]; Pre-Emergence at 62.5 g/ha,0
same,damage to plant (100=total damage; 0=no damage) AMARE,[7]; Pre-Emergence at 250 g/ha,20
